Measurements reported in patent US20260078089A1, “BIOACTIVE PHYTOCHEMICALS IN ZIZYPHUS AND GUARANA” (Phytoquest Limited, priority 2018, published 2026).

Legend:
glucosidases = experiment: Glycosidase panel, glucosidases overall; assay type: biochemical; conditions: panel of glucosidases
Method: Glycosidase assays were conducted on Compounds 1 and 3 and an extract of Zizyphus used in the disaccharide loading mouse studies to determine if glucosidase inhibition might explain the effects on blood glucose. A panel of glycosidases were used to be sure any activity found was a selective inhibition and not just non-specific binding to the enzyme.
Glycosidase assays were conducted as described by Watson et al. (Phytochemistry 1997, 46, 255) using p-nitrophenyl-substrates (except sialidase which used methylumbeliferyl-N-acetyineuraminic acid as substrate). Assays were carried out in microtitre plates. Enzymes were assayed in 0.1 M citric acid/0.2 M di-sodium hydrogen phosphate (McIlvaine) buffers at the optimum pH for the enzyme. All assays were carried out at 20° C. All enzymes and substrates were purchased from Sigma Aldrich Chemicals Limited. The incubation mixture consisted of 10 μl of enzyme solution, 10 μl of the iminosugars solution and 50 μl of the appropriate 5 mM p-nitrophenyl substrate made up in McIlvaine buffer at the optimum pH for the enzyme. The reactions were stopped with 0.4 M glycine (pH 10.4) during the exponential phase of the reaction. Absorbances were read at 405 nm. Water was substituted for the alkaloids in the blanks. Reactions were carried out in triplicate. […]

[1] = system: sialidase (NanH from T. forsythia); experiment: Sialidase assay with MUNANA substrate; assay type: biochemical, Tannerella forsythia; conditions: 1 mM inhibitor, 2.5 nM sialidase, 0.1 mM MUNANA, pH 7.2
Method: (§1) Sialidase assays used 1 mM inhibitor (or water without inhibitor) and 2.5 nM sialidase (including NanH from T. forsythia) incubated in the presence of 0.1 mM methylumbeliferyl-N-acetylneuraminic acid, pH 7.2 in 20 mM sodium phosphate buffer. Reactions were stopped at 30 seconds and 60 seconds via addition of ph 10.5 60 mM sodium carbonate buffer. Release of fluorogenic MU was quantified by measuring fluorescence emission at 450 nm, excitation 350 nm. Percentage sialidase activity was expressed as the change in fluorescence between 30 seconds and 60 seconds compared to that of a reaction without inhibitor. Reactions were carried out in triplicate.
MU release can be used to quantify sialidase activity.
as §1, with “1” for “Sialidase assays used 1”, “forsythia) was” for “forsythia)”, “MUNANA,” for “methylumbeliferyl-N-acetylneuraminic acid,”, “7.2” for “7.2 in”, “Sodium Phosphate” for “sodium phosphate”

α-D-glucosidase = target: T1, α-D-glucosidase (Oryza sativa subsp. japonica, UniProt Q653V7); experiment: Glycosidase assay, p-nitrophenyl substrate; assay type: biochemical; conditions: Rice enzyme; screened at 0.14 mg mL−1 (footnote: 0.4 mM)
T1 construct: purchased Sigma Aldrich Chemicals Limited
T1 sequence (Q653V7 34-885): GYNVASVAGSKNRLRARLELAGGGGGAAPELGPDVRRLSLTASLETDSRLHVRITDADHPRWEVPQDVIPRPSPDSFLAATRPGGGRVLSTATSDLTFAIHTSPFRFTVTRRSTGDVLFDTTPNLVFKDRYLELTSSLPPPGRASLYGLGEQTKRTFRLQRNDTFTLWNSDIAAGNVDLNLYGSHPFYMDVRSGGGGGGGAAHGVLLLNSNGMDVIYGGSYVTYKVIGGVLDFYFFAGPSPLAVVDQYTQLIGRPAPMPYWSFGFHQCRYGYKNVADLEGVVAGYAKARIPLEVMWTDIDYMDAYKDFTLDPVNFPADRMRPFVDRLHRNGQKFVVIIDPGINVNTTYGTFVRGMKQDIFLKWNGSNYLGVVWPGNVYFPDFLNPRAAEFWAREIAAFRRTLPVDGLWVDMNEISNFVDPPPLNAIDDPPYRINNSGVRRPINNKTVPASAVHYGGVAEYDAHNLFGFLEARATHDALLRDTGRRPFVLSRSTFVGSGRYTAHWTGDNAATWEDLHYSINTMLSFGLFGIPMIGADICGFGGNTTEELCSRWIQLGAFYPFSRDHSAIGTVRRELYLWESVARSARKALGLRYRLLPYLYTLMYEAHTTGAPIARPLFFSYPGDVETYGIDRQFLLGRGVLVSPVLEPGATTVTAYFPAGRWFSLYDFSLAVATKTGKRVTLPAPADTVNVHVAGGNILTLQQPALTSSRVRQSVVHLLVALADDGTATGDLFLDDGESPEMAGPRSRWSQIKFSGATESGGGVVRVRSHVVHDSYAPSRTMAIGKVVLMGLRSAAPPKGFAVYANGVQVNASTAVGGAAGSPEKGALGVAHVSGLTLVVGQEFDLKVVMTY
Method: (§2) Glycosidase assays were conducted as described by Watson et al. (Phytochemistry 1997, 46, 255) using p-nitrophenyl-substrates (except sialidase which used methylumbeliferyl-N-acetyineuraminic acid as substrate). Assays were carried out in microtitre plates. Enzymes were assayed in 0.1 M citric acid/0.2 M di-sodium hydrogen phosphate (McIlvaine) buffers at the optimum pH for the enzyme. All assays were carried out at 20° C. All enzymes and substrates were purchased from Sigma Aldrich Chemicals Limited. The incubation mixture consisted of 10 μl of enzyme solution, 10 μl of the iminosugars solution and 50 μl of the appropriate 5 mM p-nitrophenyl substrate made up in McIlvaine buffer at the optimum pH for the enzyme. The reactions were stopped with 0.4 M glycine (pH 10.4) during the exponential phase of the reaction. Absorbances were read at 405 nm. Water was substituted for the alkaloids in the blanks. Reactions were carried out in triplicate.
(§3) Enzyme inhibitor solutions—Compounds were dissolved in distilled water at a concentration of 1 mg mL^−1 and then screened at a concentration of 0.14 mg mL^−1 after dilution of the 1 mg mL^−1 in the assay volumes of substrates.

Amyloglucosidase = target: T2, Amyloglucosidase (Aspergillus niger, UniProt P69328); experiment: Glycosidase assay, p-nitrophenyl substrate; assay type: biochemical; conditions: Aspergillus niger enzyme; screened at 0.14 mg mL−1 (footnote: 0.4 mM)
T2 construct: purchased Sigma Aldrich Chemicals Limited
T2 sequence (P69328 25-640): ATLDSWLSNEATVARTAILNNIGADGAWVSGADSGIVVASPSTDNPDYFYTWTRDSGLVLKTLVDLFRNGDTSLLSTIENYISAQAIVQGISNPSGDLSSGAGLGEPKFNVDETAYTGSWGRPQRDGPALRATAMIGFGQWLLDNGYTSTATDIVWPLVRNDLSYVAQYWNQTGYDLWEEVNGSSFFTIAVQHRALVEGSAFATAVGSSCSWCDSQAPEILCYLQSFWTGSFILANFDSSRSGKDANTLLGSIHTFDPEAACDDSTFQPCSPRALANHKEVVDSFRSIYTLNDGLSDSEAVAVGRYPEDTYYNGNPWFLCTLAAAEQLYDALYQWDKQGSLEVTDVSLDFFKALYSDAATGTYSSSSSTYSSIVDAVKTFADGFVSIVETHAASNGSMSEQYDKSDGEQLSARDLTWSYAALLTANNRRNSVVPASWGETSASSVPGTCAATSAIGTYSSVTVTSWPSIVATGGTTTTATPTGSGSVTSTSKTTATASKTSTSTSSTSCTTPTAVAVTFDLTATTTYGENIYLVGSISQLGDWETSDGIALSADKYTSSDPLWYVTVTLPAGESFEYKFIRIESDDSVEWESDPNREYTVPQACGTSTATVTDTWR
Method: as §2, §3

α-D-galactosidase = target: T3, α-D-galactosidase (Coffea arabica, UniProt Q42656); experiment: Glycosidase assay, p-nitrophenyl substrate; assay type: biochemical; conditions: Green coffee bean enzyme; screened at 0.14 mg mL−1 (footnote: 0.4 mM)
T3 construct: purchased Sigma Aldrich Chemicals Limited
T3 sequence (Q42656 16-378): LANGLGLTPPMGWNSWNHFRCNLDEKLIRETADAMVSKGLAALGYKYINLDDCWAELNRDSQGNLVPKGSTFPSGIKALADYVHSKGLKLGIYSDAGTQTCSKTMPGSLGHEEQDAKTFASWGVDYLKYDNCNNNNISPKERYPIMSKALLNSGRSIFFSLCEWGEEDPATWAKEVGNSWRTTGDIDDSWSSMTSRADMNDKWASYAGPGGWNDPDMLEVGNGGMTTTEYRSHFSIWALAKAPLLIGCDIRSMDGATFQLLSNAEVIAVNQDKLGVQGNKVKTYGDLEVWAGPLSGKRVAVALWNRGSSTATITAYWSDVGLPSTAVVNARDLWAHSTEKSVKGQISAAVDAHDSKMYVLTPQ
Method: as §2, §3

Naringinase = experiment: Glycosidase assay, p-nitrophenyl substrate; assay type: biochemical; conditions: Penicillium decumbens enzyme; screened at 0.14 mg mL−1 (footnote: 0.4 mM)
Method: as §2, §3

β-D-mannosidase = experiment: Glycosidase assay, p-nitrophenyl substrate; assay type: biochemical; conditions: Cellullomonas fimi enzyme; screened at 0.14 mg mL−1 (footnote: 0.4 mM)
Method: as §2, §3

SMILES: OC[C@H]1N[C@H](CO)[C@@H](O)[C@@H]1O [DMDP]
- glucosidase inhibition (in words) (glucosidases): expected strong inhibition of various glucosidases
- % inhibition [1]: −2%
- % inhibition (α-D-glucosidase): 94.59%
- % inhibition (Amyloglucosidase): 46.84%
- % inhibition (α-D-galactosidase): 6.95%
- % inhibition (Naringinase): 2.97%
- % inhibition (β-D-mannosidase): 93.34%
